Experimental data reported in ChEMBL document CHEMBL1201862, “PubChem BioAssay data set” (2004).
The source made the active and inactive calls.

Legend:
[1] = target: T1, Sphingosine 1-phosphate receptor 2 (Homo sapiens, UniProt O95136); test: Dose Response Cell Based Assay for Agonists of the S1P2 Receptor of Purchased Analogues. [Related pubchem assays: 729, 843, 854, 736 ]; format: functional
[2] = target: Peroxisome proliferator-activated receptor gamma/Nuclear receptor corepressor 2 (Homo sapiens, UniProt P37231+Q9Y618); test: Counterscreen for NR2E3 inverse agonists: TR-FRET-based biochemical high throughput dose response assay to identify inverse agonists of the interaction between peroxisome proliferator-activated receptor gamma (PPARg) and nuclear receptor co-repressor 2 (NCOR2).; format: functional
[3] = target: Photoreceptor-specific nuclear receptor (Homo sapiens, UniProt Q9Y5X4); test: NR2E3 inverse agonists, dose response, biochemical, TR-FRET (AID 463256); format: functional
[4] = target: Peroxisome proliferator-activated receptor gamma/Nuclear receptor coactivator 3 (Homo sapiens, UniProt P37231); test: TR-FRET dose response biochemical High Throughput Screening assay for agonists of the steroid receptor coactivator 3 (SRC-3) recruitment by the peroxisome proliferator-activated receptor gamma (PPAR gamma): non-selective agonists. [Related pubchem assays: 1301 (Confirmation screen.), 1048 (Primary screen.)]; format: functional
[5] = cytotoxicity in KRAS-transformed pancreatic duct cells, primary screen, cell-based, fluorescence, HTS (AID 431); format: functional; settings: Homo sapiens;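 note: cell line used: HPDE-C7K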
[6] = target: T2, Replicative DNA helicase DnaB (Mycobacterium tuberculosis, UniProt P9WMR3); test: DnaB intein splicing inhibitors, dose response, biochemical, cell-free fluorescence (AID 449749); format: functional
T2 sequence (P9WMR3 whole entry): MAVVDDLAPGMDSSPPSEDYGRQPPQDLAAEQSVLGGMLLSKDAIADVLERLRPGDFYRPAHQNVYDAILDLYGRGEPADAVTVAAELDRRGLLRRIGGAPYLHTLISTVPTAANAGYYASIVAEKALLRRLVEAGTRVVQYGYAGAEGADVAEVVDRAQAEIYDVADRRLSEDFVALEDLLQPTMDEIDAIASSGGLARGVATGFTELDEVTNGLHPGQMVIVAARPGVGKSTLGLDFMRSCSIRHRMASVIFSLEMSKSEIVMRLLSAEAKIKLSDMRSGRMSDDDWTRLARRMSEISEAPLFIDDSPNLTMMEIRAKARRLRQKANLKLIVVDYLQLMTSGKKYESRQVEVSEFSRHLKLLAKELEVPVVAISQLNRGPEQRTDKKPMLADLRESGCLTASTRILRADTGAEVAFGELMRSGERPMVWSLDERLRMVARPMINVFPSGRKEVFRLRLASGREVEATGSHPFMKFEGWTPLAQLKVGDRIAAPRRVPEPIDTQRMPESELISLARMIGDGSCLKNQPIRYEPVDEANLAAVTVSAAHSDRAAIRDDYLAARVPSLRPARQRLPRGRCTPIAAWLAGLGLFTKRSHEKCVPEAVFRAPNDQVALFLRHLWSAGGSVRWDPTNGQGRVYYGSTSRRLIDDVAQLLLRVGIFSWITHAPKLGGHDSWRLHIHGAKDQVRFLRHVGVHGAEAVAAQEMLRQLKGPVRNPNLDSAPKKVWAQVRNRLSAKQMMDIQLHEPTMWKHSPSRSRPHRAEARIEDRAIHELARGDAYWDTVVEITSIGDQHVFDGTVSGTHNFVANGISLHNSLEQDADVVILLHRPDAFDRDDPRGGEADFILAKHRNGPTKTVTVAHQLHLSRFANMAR

[7] = target: Peroxisome proliferator-activated receptor gamma/Nuclear receptor coactivator 2 (Homo sapiens, UniProt P37231); test: (§1) TR-FRET dose response biochemical High Throughput Screening assay for agonists of the steroid receptor coactivator 2 (SRC-2) recruitment by the peroxisome proliferator-activated receptor gamma (PPAR gamma): non-selective agonists. [Related pubchem assays: 1297, 1032 ]; format: functional
[8] = cytotoxicity in HPDE-C7 cells, cell-based, fluorescence, HTS (AID 430); format: functional; settings: Homo sapiens
[9] = target: Peroxisome proliferator-activated receptor gamma/Nuclear receptor coactivator 1 (Homo sapiens, UniProt P37231); test: as §1, with “1 (SRC-1)” for “2 (SRC-2)”, “assays (depositor defined):AID1300, AID1808, AID504735, AID631]” for “assays: 1297, 1032 ]”; format: protein assay
Fatty acid synthase [10] = target: T3, Fatty acid synthase (Homo sapiens, UniProt P49327); test: FAS thioesterase domain inhibitors, dose response, biochemical, kinetic fluorescence intensity (AID 624326); format: functional;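 note: rate of fluorescence rise from hydrolysis of a fluorogenic O-methyl fluorescein ester substrate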
[11] = M. tuberculosis growth inhibition, HTS (AID 449762); format: functional
Fatty acid synthase [12] = target: T3, Fatty acid synthase; test: FAS thioesterase domain inhibitors, dose response, biochemical, endpoint fluorescence intensity, uHTS hits (AID 624327); format: functional;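 note: fluorescence from hydrolysis of an O-methyl fluorescein acyl ester substrate by the enzyme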
[13] = microbe, parasite or virus in culture; format: functional; settings: Mycobacterium tuberculosis
Protein RecA = target: T4, Protein RecA (Mycobacterium tuberculosis, UniProt P9WHJ3); test: Fluorescence Cell-Free Homogeneous Dose Retest to Identify Inhibitors of RecA-Intein Splicing Activity. [Related pubchem assays (depositor defined):AID2097, AID2223, AID489010, AID492950]; format: functional
T4 sequence (P9WHJ3 whole entry): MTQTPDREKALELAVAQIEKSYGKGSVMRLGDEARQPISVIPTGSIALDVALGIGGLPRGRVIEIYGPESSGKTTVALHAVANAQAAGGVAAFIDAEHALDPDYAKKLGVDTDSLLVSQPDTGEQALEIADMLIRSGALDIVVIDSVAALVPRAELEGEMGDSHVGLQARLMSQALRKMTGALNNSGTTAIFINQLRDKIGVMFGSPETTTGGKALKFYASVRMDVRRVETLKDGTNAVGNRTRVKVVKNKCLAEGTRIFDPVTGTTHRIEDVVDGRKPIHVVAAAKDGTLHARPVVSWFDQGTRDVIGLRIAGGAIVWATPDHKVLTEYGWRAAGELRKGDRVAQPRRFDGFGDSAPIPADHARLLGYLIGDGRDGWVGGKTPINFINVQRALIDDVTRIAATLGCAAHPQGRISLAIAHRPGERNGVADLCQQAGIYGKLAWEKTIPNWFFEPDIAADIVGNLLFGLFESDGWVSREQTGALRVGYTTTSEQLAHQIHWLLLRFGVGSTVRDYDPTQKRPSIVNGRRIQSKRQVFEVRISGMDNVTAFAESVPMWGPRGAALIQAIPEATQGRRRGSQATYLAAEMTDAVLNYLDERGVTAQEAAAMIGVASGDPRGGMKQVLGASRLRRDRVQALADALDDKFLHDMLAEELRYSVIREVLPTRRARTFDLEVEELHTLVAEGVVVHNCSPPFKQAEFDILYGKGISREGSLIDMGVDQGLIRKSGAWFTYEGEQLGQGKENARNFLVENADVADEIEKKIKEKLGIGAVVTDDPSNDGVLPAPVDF

Bcl-2-related protein A1 [14] = target: T5, Bcl-2-related protein A1 (Mus musculus, UniProt Q07440); test: Bfl-1 inhibitors blocking BH3 peptide binding, confirmation, biochemical, TR-FRET, mouse Bfl-1 (AID 621);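 note: TR-FRET binding of GST-Bfl-1 to FITC-labelled Bid peptide via terbium antibody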
T5 sequence (Q07440 whole entry): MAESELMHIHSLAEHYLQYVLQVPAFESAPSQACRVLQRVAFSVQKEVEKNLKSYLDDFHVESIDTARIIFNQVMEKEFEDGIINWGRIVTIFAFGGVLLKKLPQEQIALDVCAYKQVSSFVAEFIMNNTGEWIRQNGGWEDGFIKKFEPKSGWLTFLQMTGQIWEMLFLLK

[15] = LGR2 antagonists, dose response, cell-based, HEK293, CRE-luciferase reporter, cherry pick, set 2 (AID 743343); format: functional;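 note: transfected cells were stimulated with diluted bursicon conditioned medium after compound addition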
[16] = MC4R antagonists, dose response, counter-screen for LGR2 antagonist project, cell-based, plate reader, cherry pick (AID 743444); format: functional;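 note: transfected HEK 293 cells stimulated with alpha-MSH peptide; potency of inhibitors of the alpha-MSH evoked signal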
[17] = HepG2 cell cytotoxicity, dose response, cytotoxicity control, plate reader, cherry-pick, antagonist series (AID 743416); format: functional, cell-based
[18] = A549 cell cytotoxicity, dose response, cytotoxicity control, plate reader, cherry-pick, antagonist series (AID 743412); format: functional, cell-based
Bcl-2-related protein A1 [19] = target: T5, Bcl-2-related protein A1; test: Bfl-1 binding inhibitors, SAR follow-up, biochemical, fluorescence polarization (AID 1070)
[20] = target: T1, Sphingosine 1-phosphate receptor 2; test: Dose Response Cell-Based Assay for Agonists of the Sphingosine 1-Phosphate Receptor 2 (S1P2): Purchased Analogues. [Related pubchem assays: 1192, 373, 439 ]; format: functional
[21] = target: Sphingosine 1-phosphate receptor 1 (Homo sapiens, UniProt P21453); test: Dose Response Cell-Based Assay for Agonists of the Sphingosine 1-Phosphate Receptor 1 (S1P1): Purchased Analogues. [Related pubchem assays: 1192, 373, 439 ]; format: functional
[22] = target: Sphingosine 1-phosphate receptor 3 (Homo sapiens, UniProt Q99500); test: Dose Response Cell-Based Assay for Agonists of the Sphingosine 1-Phosphate Receptor 3 (S1P3): Purchased Analogues. [Related pubchem assays: 373, 439 ]; format: functional

T3 sequence (P49327 whole entry, the tested form may be a part): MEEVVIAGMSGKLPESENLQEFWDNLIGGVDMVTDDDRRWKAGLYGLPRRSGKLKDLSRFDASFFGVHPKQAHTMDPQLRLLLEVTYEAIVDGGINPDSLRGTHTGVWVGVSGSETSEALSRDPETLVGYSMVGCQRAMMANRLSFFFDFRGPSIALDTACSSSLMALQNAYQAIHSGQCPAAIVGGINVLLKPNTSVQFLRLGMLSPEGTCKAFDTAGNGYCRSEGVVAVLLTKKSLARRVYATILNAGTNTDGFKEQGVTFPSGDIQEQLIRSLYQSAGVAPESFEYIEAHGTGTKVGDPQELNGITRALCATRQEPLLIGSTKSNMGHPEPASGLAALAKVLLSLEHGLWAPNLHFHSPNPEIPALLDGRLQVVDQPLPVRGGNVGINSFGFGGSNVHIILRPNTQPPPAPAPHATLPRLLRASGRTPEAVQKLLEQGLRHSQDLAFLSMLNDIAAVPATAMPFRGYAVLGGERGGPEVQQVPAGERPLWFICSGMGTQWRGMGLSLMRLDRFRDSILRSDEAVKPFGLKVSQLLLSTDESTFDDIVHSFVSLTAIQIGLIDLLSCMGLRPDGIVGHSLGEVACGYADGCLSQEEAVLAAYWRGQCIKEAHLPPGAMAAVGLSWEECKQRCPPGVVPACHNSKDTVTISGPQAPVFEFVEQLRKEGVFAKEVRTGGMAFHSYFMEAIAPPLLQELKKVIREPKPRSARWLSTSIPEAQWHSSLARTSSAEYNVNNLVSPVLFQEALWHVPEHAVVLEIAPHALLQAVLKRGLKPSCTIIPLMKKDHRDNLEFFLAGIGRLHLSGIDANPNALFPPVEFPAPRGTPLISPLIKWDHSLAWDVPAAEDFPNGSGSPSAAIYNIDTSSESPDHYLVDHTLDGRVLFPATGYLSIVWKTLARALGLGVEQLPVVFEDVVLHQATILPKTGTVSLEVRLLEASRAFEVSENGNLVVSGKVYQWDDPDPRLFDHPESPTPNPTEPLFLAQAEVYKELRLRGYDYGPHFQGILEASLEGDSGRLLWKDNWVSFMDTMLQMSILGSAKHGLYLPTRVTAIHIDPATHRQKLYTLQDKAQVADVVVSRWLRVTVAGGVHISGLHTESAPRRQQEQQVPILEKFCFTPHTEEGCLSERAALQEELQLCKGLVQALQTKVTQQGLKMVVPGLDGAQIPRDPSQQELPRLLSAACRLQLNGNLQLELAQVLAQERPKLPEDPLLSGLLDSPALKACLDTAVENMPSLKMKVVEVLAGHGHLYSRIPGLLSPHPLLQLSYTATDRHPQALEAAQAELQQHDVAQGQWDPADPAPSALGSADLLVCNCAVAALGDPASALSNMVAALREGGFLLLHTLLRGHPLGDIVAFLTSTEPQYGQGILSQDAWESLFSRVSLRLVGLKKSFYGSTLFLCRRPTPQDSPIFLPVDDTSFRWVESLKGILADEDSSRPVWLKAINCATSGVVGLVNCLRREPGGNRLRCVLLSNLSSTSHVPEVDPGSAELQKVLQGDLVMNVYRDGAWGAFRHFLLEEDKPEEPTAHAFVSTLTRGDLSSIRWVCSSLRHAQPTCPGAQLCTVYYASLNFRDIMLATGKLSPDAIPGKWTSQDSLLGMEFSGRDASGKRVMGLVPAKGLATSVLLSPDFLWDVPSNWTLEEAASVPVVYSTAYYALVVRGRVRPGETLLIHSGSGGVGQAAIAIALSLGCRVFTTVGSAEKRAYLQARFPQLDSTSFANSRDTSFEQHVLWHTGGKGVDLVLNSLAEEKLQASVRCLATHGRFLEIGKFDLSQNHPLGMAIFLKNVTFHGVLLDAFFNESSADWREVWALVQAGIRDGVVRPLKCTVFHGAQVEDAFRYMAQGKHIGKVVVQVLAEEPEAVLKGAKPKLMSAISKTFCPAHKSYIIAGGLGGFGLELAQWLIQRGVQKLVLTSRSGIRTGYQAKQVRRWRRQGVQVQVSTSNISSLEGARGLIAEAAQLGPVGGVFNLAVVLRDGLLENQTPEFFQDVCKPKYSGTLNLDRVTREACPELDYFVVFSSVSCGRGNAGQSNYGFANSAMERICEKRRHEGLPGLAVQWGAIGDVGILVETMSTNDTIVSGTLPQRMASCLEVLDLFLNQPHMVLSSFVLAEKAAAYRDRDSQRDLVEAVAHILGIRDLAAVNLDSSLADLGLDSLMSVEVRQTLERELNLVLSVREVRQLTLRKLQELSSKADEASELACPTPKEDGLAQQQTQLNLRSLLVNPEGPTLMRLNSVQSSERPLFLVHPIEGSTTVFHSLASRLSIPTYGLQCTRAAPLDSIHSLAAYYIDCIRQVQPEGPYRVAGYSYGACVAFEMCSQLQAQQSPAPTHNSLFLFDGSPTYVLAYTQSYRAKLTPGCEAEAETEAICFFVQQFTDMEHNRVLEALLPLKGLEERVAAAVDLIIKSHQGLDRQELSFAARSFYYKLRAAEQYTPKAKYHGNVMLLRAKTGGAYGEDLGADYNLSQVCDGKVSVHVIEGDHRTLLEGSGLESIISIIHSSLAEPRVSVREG
T1 sequence (O95136 whole entry): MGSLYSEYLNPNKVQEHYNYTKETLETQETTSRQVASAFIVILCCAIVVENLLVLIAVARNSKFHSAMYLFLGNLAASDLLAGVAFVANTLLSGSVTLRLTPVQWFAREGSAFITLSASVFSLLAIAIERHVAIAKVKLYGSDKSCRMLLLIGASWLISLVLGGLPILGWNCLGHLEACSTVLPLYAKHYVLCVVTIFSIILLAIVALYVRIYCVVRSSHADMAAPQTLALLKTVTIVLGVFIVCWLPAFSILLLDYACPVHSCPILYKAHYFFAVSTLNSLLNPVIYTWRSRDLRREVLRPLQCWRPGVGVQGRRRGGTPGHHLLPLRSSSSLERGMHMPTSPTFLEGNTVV
Sequence of Peroxisome proliferator-activated receptor gamma/Nuclear receptor coactivator 2 (P37231 whole entry): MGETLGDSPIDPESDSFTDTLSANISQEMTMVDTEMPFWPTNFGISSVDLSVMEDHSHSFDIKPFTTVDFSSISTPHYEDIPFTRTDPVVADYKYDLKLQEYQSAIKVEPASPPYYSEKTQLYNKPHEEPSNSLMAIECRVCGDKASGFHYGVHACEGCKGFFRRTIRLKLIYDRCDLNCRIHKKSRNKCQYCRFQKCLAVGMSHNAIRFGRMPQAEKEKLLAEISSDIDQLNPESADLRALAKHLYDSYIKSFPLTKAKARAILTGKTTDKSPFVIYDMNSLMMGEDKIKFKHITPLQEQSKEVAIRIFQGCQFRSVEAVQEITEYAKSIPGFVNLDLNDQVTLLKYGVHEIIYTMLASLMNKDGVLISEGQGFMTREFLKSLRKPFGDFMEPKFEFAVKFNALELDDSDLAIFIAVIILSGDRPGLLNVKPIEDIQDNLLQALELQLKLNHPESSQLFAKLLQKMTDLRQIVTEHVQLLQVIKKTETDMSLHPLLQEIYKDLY
Sequence of Peroxisome proliferator-activated receptor gamma/Nuclear receptor coactivator 2 (Q15596 whole entry, further chain): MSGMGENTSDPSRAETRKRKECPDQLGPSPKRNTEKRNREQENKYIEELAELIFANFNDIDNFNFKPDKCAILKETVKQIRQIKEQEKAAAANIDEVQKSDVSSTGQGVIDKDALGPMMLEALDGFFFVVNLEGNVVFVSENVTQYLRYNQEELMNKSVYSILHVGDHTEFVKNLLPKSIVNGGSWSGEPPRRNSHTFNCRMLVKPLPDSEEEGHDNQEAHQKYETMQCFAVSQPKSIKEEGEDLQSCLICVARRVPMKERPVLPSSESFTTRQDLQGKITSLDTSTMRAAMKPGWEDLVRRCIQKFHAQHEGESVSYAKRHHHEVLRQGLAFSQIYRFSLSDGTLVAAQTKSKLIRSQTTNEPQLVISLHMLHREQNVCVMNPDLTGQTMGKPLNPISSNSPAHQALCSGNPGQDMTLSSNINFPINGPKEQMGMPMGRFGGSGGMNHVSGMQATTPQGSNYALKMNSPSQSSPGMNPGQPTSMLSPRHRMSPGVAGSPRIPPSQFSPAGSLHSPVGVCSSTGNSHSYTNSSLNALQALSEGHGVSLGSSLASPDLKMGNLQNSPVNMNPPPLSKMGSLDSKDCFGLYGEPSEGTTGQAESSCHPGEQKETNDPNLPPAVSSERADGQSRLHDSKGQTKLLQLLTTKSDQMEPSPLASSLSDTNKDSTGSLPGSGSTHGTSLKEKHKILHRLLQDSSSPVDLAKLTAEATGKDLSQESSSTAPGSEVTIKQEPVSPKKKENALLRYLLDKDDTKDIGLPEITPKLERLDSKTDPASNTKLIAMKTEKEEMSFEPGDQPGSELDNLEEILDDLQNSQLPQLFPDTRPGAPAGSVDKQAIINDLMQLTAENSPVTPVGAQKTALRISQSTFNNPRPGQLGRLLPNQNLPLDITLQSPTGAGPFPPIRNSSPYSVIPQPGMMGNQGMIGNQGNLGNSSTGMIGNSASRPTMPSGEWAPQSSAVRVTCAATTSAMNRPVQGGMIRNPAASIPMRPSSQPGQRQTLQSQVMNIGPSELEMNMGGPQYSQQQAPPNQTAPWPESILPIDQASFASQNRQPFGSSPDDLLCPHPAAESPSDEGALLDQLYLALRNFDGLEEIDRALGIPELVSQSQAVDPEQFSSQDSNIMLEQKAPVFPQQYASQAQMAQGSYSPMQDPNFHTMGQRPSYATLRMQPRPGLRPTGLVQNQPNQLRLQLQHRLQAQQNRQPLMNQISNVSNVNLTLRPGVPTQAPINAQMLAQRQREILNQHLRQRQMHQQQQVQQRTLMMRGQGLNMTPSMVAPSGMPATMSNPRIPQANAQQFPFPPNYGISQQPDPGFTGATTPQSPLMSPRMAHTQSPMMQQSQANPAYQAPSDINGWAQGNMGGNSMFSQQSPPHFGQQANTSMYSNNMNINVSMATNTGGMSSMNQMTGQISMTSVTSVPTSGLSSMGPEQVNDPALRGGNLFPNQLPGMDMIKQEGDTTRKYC

Cc1cc(C(=O)CN(C)CC(=O)NC2CC2)c(C)n1Cc1ccccc1
EC50 [1]: > 30 µM (not active)

CC(C)(C)NC(=O)CN(Cc1ccco1)C(=O)CCC(=O)Nc1nccs1
IC50 [2]: 32.7 µM (not active)
IC50 [3]: > 39.8 µM (not active)

O=C(Sc1nnc(-c2ccccc2)o1)N1c2ccccc2Sc2ccccc21
EC50 [4]: > 79.4 µM (not active)
EC50 [5]: 6.64 µM (active)
AC50 [6]: 1.25 µM (active)
EC50 [7]: 20.8 µM (not active)
EC50 [8]: 5.48 µM (active)
EC50 [9]: 34.9 µM (inactive)
IC50 (Fatty acid synthase [10]): 16.3 µM (active)
IC50 [11]: > 100 µM (active)
IC50 (Fatty acid synthase [12]): 10.4 µM (active)
CC50 [13]: > 40 µM (active)
EC50 (Protein RecA): 804 nM (active)

Fc1ccc(-n2nnc(-c3cnc4ccccc4c3)n2)cc1
IC50 (Bcl-2-related protein A1 [14]): > 100 µM (not active)
AC50 [15]: 1.23 µM (active)
AC50 [16]: 2.15 µM (active)
AC50 [17]: > 52 µM (inactive)
AC50 [18]: 39.5 µM (active)
IC50 (Bcl-2-related protein A1 [19]): > 100 µM (not active)

COc1ccc(-c2n[nH]c(SCC(=O)N(C3CCCCC3)C3CCCCC3)n2)cc1
EC50 [20]: > 10 µM (not active)
EC50 [21]: > 50 µM (not active)
EC50 [22]: > 50 µM (not active)
